# In patent publication US20100035822A1, “PROLINE-RICH PEPTIDES, PHARMACEUTICAL COMPOSITION, USE OF ONE OR MORE PEPTIDES AND METHOD OF TREATMENT” (priority 2006, published 2010):
# “Also recorded” adds a separate entry of the source.
# How the values were obtained:
# [1] = Determination of Z-pro metabolites in mice urine; format: in vivo, mouse; conditions: mice; 0.91 mg/Kg intraperitoneally; urine collected after 24 hours; mass spectrometry; 0.91 mg/kg
# Procedure: In vivo hydrolysis of peptides SEQ ID NO 1, SEQ ID NO 4, SEQ ID NO 5, SEQ ID NO 8, and SEQ ID NO 15 was investigated in Swiss male mice weighing approximately 22-25 g, which had free access to food and water, and were kept under a light-dark cycle of 12 hour periods.
# Groups of 10 mice were treated intraperitoneally with 0.91 mg/Kg of each proline rich oligopeptide per animal, diluted in 200 μl saline. Treated and control animals (not treated) were kept in metabolic cages, and their urine was collected after 24 hours. The urine was pre-purified in a reverse phase Sep-Pak C18 micro column (Waters), which had been previously equilibrated with solvent A (H2O/0.1% TFA). Samples were eluted with 60% solvent B (90% acetonitrile/10% solvent A), lyophilized, and resuspended in 1 ml deionized water to be centrifuged at 14.000 rpm for 5 minutes. The supernatant (500 μl) was fractionated in an analytic HPLC system. The gradient was 5-65% solvent B for 30 minutes, using a flow rate of 1 ml/min and monitoring at 214 nm. Fractions were lyophilized and ressuspended in acetonitrile/H2O (1:1), containing 0.2% formic acid, and were analyzed by mass spectrometry (Q-TOF-Pro). Urine fractions from control and treated animals were compared to determine the presence of metabolites originated from the peptides being tested.
# [2] = target: T1, argininosuccinate synthase (AsS) (Mus musculus, UniProt P16460); test: Affinity chromatography of mouse kidney extract on peptide column; identification of the bound protein; format: binding; conditions: affinity column with SEQ ID NO 7 as ligand; crude mouse kidney extract
# T1 construct: Cytosolic and membrane fractions of the renal extract (100 mg/ml total protein) were applied to separate columns; from tissue; host or cells: Balb-c mouse kidney, cytosolic and membrane fractions
# T1 sequence (P16460 1-412): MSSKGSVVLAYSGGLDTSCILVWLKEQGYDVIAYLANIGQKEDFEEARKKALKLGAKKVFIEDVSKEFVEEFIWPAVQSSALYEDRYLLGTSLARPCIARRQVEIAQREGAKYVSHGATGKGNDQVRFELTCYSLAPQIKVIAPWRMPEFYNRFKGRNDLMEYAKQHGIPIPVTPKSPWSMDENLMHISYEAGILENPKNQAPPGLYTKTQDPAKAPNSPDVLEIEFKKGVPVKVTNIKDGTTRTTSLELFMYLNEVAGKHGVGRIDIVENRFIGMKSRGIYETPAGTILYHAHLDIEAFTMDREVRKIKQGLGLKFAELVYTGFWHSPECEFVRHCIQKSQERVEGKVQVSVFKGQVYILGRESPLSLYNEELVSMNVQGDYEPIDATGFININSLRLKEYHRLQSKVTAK
# Procedure: Starting material were the cytosolic and plasma membrane crude extracts of mouse kidney cells homogenized in the buffer 10 mM Tris-HCl pH 7.5, 25 mM saccharose, 1 mM EDTA, and 1 mM PMSF (cytosolic fraction), or 1% Triton X-100 (plasma membrane fraction). Supernatants were dialyzed in 0.2 M NaHCO3, 0.5 M NaCl, pH 8.3, and separately applied to the affinity chromatography column Hitrap NHS-activated (GE Healthcare) coupled to 5 mg of peptide SEQ ID NO 7.
# Preparing affinity columns. Columns were washed three times with 2 ml 1 mM HCl before homogeneous preparations of SEQ ID NO 7 (5 mg in 1 ml 0.2 M NaHCO3, 0.5 M NaCl, pH 8.3) were applied. After 30 min incubation at room temperature, peptides had been coupled, and the column was inactivated with buffer A (0.5 M ethanolamine, 0.5 M NaCl, pH 8.3), and washed with 0.2 M NaHCO3, 0.5 M NaCl, pH 8.3, and stored at 4° C. in 50 mM Na2HPO4, 0.1%, NaN3, pH 7.0. The columns were called HiTrap-SEQ. ID NO 7. […]
# Affinity chromatography and analysis of the retained proteins by SDS-PAGE. […] Protein concentration (mg/ml) was determined by the method of Bradford (Bradford, M. M. A rapid and sensitive method for the quantitation of microgram quantities of protein utilizing the principle of protein-dye binding. Anal. Biochem. 72: 248-254, 1976) with the Protein Assay reagent from BioRad. […]
substance,measurement,setting,value
<ENWPHPQIPP [SEQ ID NO 8],Metabolites in the urine,[1],<ENWPHPQIPP; also recorded: <ENWPHPQIP
same,binding to the approx. 46 kDa protein (AsS) of mouse kidney extract,[2],capable of selectively binding
